Laboratory results reported in PMC6857076 (Pharmacology Research & Perspectives, 2019).
Where two headings read alike, the source gives them in different places.

Key:
[1] = system: IFNγ cytokine receptor (JAK1/JAK2); test: Human whole blood, IFNγ-induced pSTAT1, CD14+ cells; type: cell-based; conditions: for IC50: Homo sapiens
Experimental: Blood was warmed to 37°C prior to use.
(§1) Then, 5 µL of PBS or cytokine was added to each well (5 µL/well; final, 10 U/mL EPO, 100 ng/mL G‐CSF, 10 ng/mL GM‐CSF, 5000 U/mL IFNα, 100 ng/mL IFNγ, 50 ng/mL IL‐2, 50 ng/mL IL‐3, 5 ng/mL IL‐4, 50 ng/mL IL‐6, 30 ng/mL IL‐7, 30 ng/mL IL‐10, 30 ng/mL IL‐12, 30 ng/mL IL‐13, 30 ng/mL IL‐15, 50 ng/mL IL‐21, 25 ng/mL IL‐23, 1000 ng/mL IL‐27) and incubated for 15 minutes. Anti‐cell surface antibodies were added 15 minutes prior to cytokine stimulation; anti‐CD14‐Pacific Blue (0.5 µL/well) to GM‐CSF, IFNγ, and TPO‐treated samples; anti‐CD3‐BV650 (0.5 µL/well) plus anti‐CD14‐Pacific Blue (0.5 µL/well) to IL‐6‐treated samples; and anti‐CD19‐BV421 (0.5 µL/well) plus anti‐CD14‐AF488 (0.5 µL/well) to IL‐13‐treated samples.
(§2) One more wash was done with staining buffer and all samples were finally suspended in 150 µL/well of the desired anti‐pSTAT antibodies at 1:150 dilution in staining buffer; anti‐pSTAT1‐AF647 in IFNγ‐treated samples; anti‐pSTAT1‐AF488 and anti‐pSTAT3‐AF647 in IFNα‐, IL‐6‐, and IL‐27‐treated samples; anti‐pSTAT3‐AF647 in G‐CSF‐, IL‐10‐, IL‐21‐, and IL‐23‐treated samples; anti‐pSTAT4‐AF647 in IL‐12‐treated samples; anti‐pSTAT5‐AF647 in EPO‐, GM‐CSF‐, IL‐2‐, IL‐3‐, IL‐7‐, IL‐15‐, and TPO‐treated samples; anti‐pSTAT5‐AF488 and anti‐pSTAT6‐AF647 in IL‐4‐treated samples; and anti‐pSTAT6‐AF647 in IL‐13‐treated samples.
(§3) The lymphocyte population was gated for pSTAT histogram analysis for IFNα‐, IL‐2‐, IL‐3‐, IL‐4‐, IL‐7‐, IL‐10‐, IL‐12‐, IL‐15‐, IL‐21‐, IL‐23‐, and IL‐27‐treated samples; granulocyte population for G‐CSF‐treated samples; CD14^+ cells for GM‐CSF‐, IFNγ‐, and TPO‐treated samples; CD3^+ cells and CD14^+ cells for IL‐6‐treated samples; CD14^+ cells and CD19^+ cells for IL‐13‐treated samples; all events (entire populations) for EPO‐treated cells. Background fluorescence was defined using unstimulated cells and a gate was placed at the foot of the peak to include ~0.5% gated population.
(§4) Histogram statistical analysis was performed using FACSDiva version 8.0.1 (BD Biosciences). Relative fluorescence unit (RFU), which measures the level of pSTAT, was calculated by multiplying the percent positive population and its mean fluorescence. Data from 11 compound concentrations (singlicate at each concentration) were normalized as a percentage of control, as shown in Equation 1:(1) %ofcontrol=100×A−B/C−B
(§5) A, RFU from wells containing compound and cytokine; B, RFU from wells without cytokine (minimum fluorescence); C, RFU from wells containing only cytokine (maximum fluorescence).
(§6) Inhibition curves and IC50 values were determined using Prism software (Version 7, GraphPad).

[2] = system: IL-6 cytokine receptor (JAK1/JAK2, JAK1/TYK2); test: Human whole blood, IL-6-induced pSTAT1, CD14+ cells; type: cell-based
Experimental: Blood was warmed to 37°C prior to use.
(§7) Anti‐cell surface antibodies were added 15 minutes prior to cytokine stimulation; anti‐CD14‐Pacific Blue (0.5 µL/well) to GM‐CSF, IFNγ, and TPO‐treated samples; anti‐CD3‐BV650 (0.5 µL/well) plus anti‐CD14‐Pacific Blue (0.5 µL/well) to IL‐6‐treated samples; and anti‐CD19‐BV421 (0.5 µL/well) plus anti‐CD14‐AF488 (0.5 µL/well) to IL‐13‐treated samples.
as §3, §4, §5, §6

[3] = system: IL-10 cytokine receptor (JAK1/TYK2); test: Human whole blood, IL-10-induced pSTAT3, lymphocytes; type: cell-based; conditions: Lymphocyte
Experimental: Blood was warmed to 37°C prior to use.
as §1, §2, §3, §4, §5, §6

[4] = system: IL-6 cytokine receptor (JAK1/JAK2, JAK1/TYK2); test: Human whole blood, IL-6-induced pSTAT1, CD3+ cells; type: cell-based; conditions: for IC50: Homo sapiens
Experimental: Blood was warmed to 37°C prior to use.
as §1, §2, §3, §4, §5, §6

[5] = unbound, Cav × fu; filgotinib 200 mg QD
[6] = system: IL-27 cytokine receptor (JAK1/JAK2, JAK1/TYK2); test: Human whole blood, IL-27-induced pSTAT1, lymphocytes; type: cell-based; conditions: Lymphocyte
Experimental: Blood was warmed to 37°C prior to use.
as §7, §3, §4, §5, §6

[7] = system: IL-27 cytokine receptor (JAK1/JAK2, JAK1/TYK2); test: Human whole blood, IL-27-induced pSTAT3, lymphocytes; type: cell-based; conditions: Lymphocyte
Experimental: Blood was warmed to 37°C prior to use.
as §1, §2, §3, §4, §5, §6

[8] = system: IL-6 cytokine receptor (JAK1/JAK2, JAK1/TYK2); test: Human whole blood, IL-6-induced pSTAT3, CD3+ cells; type: cell-based
Experimental: Blood was warmed to 37°C prior to use.
as §7, §3, §4, §5, §6

[9] = system: IL-21 cytokine receptor (JAK1/JAK3); test: Human whole blood, IL-21-induced pSTAT3, lymphocytes; type: cell-based; conditions: Lymphocyte
Experimental: Blood was warmed to 37°C prior to use.
as §1, §2, §3, §4, §5, §6

[10] = system: CRP; conditions: RA; filgotinib 200 mg QD; cited from earlier work
[11] = system: IL-4 cytokine receptor (JAK1/JAK3); test: Human whole blood, IL-4-induced pSTAT6, lymphocytes; type: cell-based; conditions: Lymphocyte
Experimental: Blood was warmed to 37°C prior to use.
as §1, §2, §3, §4, §5, §6

[12] = phase 3 RA studies; cited from earlier work
[13] = system: IL-13 cytokine receptor (JAK1/JAK2, JAK1/TYK2); test: Human whole blood, IL-13-induced pSTAT6, CD14+ cells; type: cell-based
Experimental: Blood was warmed to 37°C prior to use.
as §7, §3, §4, §5, §6

[14] = system: IL-13 cytokine receptor (JAK1/JAK2, JAK1/TYK2); test: Human whole blood, IL-13-induced pSTAT6, CD19+ cells; type: cell-based
Experimental: Blood was warmed to 37°C prior to use.
as §7, §3, §4, §5, §6

[15] = system: TPO cytokine receptor (JAK2/JAK2); test: Human whole blood, TPO-induced pSTAT5, CD14+ cells; type: cell-based
Experimental: Blood was warmed to 37°C prior to use.
as §1, §2, §3, §4, §5, §6

[16] = system: IFNα cytokine receptor (JAK1/TYK2); test: Human whole blood, IFNα-induced pSTAT1, lymphocytes; type: cell-based; conditions: for IC50: Homo sapiens, Lymphocyte
Experimental: Blood was warmed to 37°C prior to use.
as §1, §2, §3, §4, §5, §6

[17] = system: IL-7 cytokine receptor (JAK1/JAK3); test: Human whole blood, IL-7-induced pSTAT5, lymphocytes; type: cell-based; conditions: Lymphocyte
Experimental: Blood was warmed to 37°C prior to use.
as §1, §2, §3, §4, §5, §6

[18] = in vitro; conditions: both, human, pooled human plasma
[19] = system: IL-15 cytokine receptor (JAK1/JAK3); test: Human whole blood, IL-15-induced pSTAT5, lymphocytes; type: cell-based; conditions: for IC50: Homo sapiens, Lymphocyte
Experimental: Blood was warmed to 37°C prior to use.
as §1, §2, §3, §4, §5, §6

[20] = system: IL-3 cytokine receptor (JAK2/JAK2); test: Human whole blood, IL-3-induced pSTAT5, lymphocytes; type: cell-based
Experimental: Blood was warmed to 37°C prior to use.
as §1, §2, §3, §4, §5, §6

[21] = system: EPO cytokine receptor (JAK2/JAK2); test: Human whole blood spiked with CD34+-derived erythroid progenitor cells, EPO-induced pSTAT5; type: cell-based; conditions: for IC50: Erythroid progenitor cell, human whole blood
Experimental: CD34^+ cells were then harvested, washed once with Dulbecco's (D)‐PBS, and suspended at 0.5 x 10^6 cells/mL in human whole blood to be used in the EPO stimulation assay.
Blood was warmed to 37°C prior to use.
Background fluorescence was defined using unstimulated cells and a gate was placed at the foot of the peak to include ~0.5% gated population.
as §4, §5, §6

[22] = system: IL-12 cytokine receptor (JAK2/TYK2); test: Human whole blood, IL-12-induced pSTAT4, lymphocytes; type: cell-based; conditions: for IC50: Homo sapiens, Lymphocyte
Experimental: Blood was warmed to 37°C prior to use.
as §1, §2, §3, §4, §5, §6

[23] = system: IL-2 cytokine receptor (JAK1/JAK3); test: Human whole blood, IL-2-induced pSTAT5, lymphocytes; type: cell-based; conditions: Lymphocyte
Experimental: Blood was warmed to 37°C prior to use.
as §1, §2, §3, §4, §5, §6

[24] = system: IFNα cytokine receptor (JAK1/TYK2); test: Human whole blood, IFNα-induced pSTAT3, lymphocytes; type: cell-based; conditions: Lymphocyte
Experimental: Blood was warmed to 37°C prior to use.
as §1, §2, §3, §4, §5, §6

[25] = human; filgotinib 200 mg QD; cited from earlier work
[26] = system: GM-CSF cytokine receptor (JAK2/JAK2); test: Human whole blood, GM-CSF-induced pSTAT5, CD14+ cells; type: cell-based
Experimental: Blood was warmed to 37°C prior to use.
as §1, §2, §3, §4, §5, §6

Question: Which “LogIC50, IFNγ induced pSTAT1, single experiment” value [1] does the source give for `O=C(Nc1nc2cccc(-c3ccc(CN4CCS(=O)(=O)CC4)cc3)n2n1)C1CC1` [Filgotinib] here?
Answer: The value was -5.17 log[M].

Question: And the IC50 ([1]; read-out: IC50, IFNγ induced pSTAT1, single experiment)?
Answer: Its IC50 is 6760 nM.

Question: And the IC50 ([1]; read-out: IC50, IFNγ, pSTAT1)?
Answer: Its IC50 is 6950 nM.

Question: And the IC50 ([1]; read-out: IC50,u, IFNγ, pSTAT1)?
Answer: The IC50 was 2790 nM.

Question: What about the IC50 ([2]; read-out: IC50, IL-6, pSTAT1, CD14+ cells) of the same molecule?
Answer: The IC50 was 810 nM.

Question: What about the IC50 ([2]; read-out: IC50,u, IL-6, pSTAT1, CD14+ cells) of the same molecule?
Answer: Its IC50 is 325 nM.

Question: And the IC50 ([3]; read-out: IC50, IL-10, pSTAT3)?
Answer: Its IC50 is 2550 nM.

Question: What about the IC50 ([3]; read-out: IC50,u, IL-10, pSTAT3) of the same molecule?
Answer: The IC50 was 1020 nM.

Question: And the “LogIC50, IL-6 induced pSTAT1 (CD3+ cells), single experiment” value [4]?
Answer: The value was -6.12 log[M].

Question: And the IC50 ([4]; read-out: IC50, IL-6, pSTAT1, CD3+ cells)?
Answer: The IC50 was 671 nM.

Question: And the IC50 ([4]; read-out: IC50, IL-6 induced pSTAT1 (CD3+ cells), single experiment)?
Answer: The IC50 was 759 nM.

Question: And the IC50 ([4]; read-out: IC50,u, IL-6, pSTAT1, CD3+ cells)?
Answer: The IC50 was 270 nM.

Question: What about the “Cav,u” value [5] of the same molecule?
Answer: Its value is 232.0 nM.

Question: And the IC50 ([6]; read-out: IC50, IL-27, pSTAT1)?
Answer: The IC50 was 2110 nM.

Question: And the IC50 ([6]; read-out: IC50,u, IL-27, pSTAT1)?
Answer: Its IC50 is 848 nM.

Question: What about the IC50 ([7]; read-out: IC50, IL-27, pSTAT3) of the same molecule?
Answer: The IC50 was 1160 nM.

Question: What about the IC50 ([7]; read-out: IC50,u, IL-27, pSTAT3) of the same molecule?
Answer: The IC50 was 468 nM.

Question: What about the IC50 ([8]; read-out: IC50, IL-6, pSTAT3, CD3+ cells) of the same molecule?
Answer: Its IC50 is 4940 nM.

Question: What about the IC50 ([8]; read-out: IC50,u, IL-6, pSTAT3, CD3+ cells) of the same molecule?
Answer: The IC50 was 1980 nM.

Question: And the IC50 ([9]; read-out: IC50, IL-21, pSTAT3)?
Answer: The IC50 was 3980 nM.

Question: What about the IC50 ([9]; read-out: IC50,u, IL-21, pSTAT3) of the same molecule?
Answer: The IC50 was 1600 nM.

Question: And the “reduction of CRP levels from baseline to week 12” value [10]?
Answer: The value was -14.9 mg/L.

Question: What about the IC50 ([11]; read-out: IC50, IL-4, pSTAT6) of the same molecule?
Answer: The IC50 was 3620 nM.

Question: And the IC50 ([11]; read-out: IC50,u, IL-4, pSTAT6)?
Answer: The IC50 was 1460 nM.

Question: What about the herpes zoster occurrence [12] of the same molecule?
Answer: The herpes zoster occurrence was “reported”.

Question: What about the IC50 ([13]; read-out: IC50, IL-13, pSTAT6, CD14+ cells) of the same molecule?
Answer: Its IC50 is 5140 nM.

Question: And the IC50 ([13]; read-out: IC50,u, IL-13, pSTAT6, CD14+ cells)?
Answer: The IC50 was 2060 nM.

Question: And the IC50 ([14]; read-out: IC50, IL-13, pSTAT6, CD19+ cells)?
Answer: The IC50 was 2120 nM.

Question: And the IC50 ([14]; read-out: IC50,u, IL-13, pSTAT6, CD19+ cells)?
Answer: The IC50 was 853 nM.

Question: What about the IC50 ([15]; Homo sapiens, read-out: IC50, TPO, pSTAT5) of the same molecule?
Answer: Its IC50 is greater than 17600 nM.

Question: What about the “IC50, TPO, pSTAT5” value ([15]; human whole blood, four donors, mean (SD), CD14+ cells, JAK2/JAK2) of the same molecule?
Answer: The value was “not measurable”.

Question: What about the “LogIC50, IFNα induced pSTAT1, single experiment” value ([16]; Figure S1B, Donor 256, Exp 1) of the same molecule?
Answer: The value was -5.931 log[M].

Question: And the IC50 ([16]; read-out: IC50, IFNα induced pSTAT1, single experiment)?
Answer: The IC50 was 1170 nM.

Question: What about the IC50 ([16]; read-out: IC50, IFNα, pSTAT1) of the same molecule?
Answer: The IC50 was 1320 nM.

Question: What about the IC50 ([16]; read-out: IC50,u, IFNα, pSTAT1) of the same molecule?
Answer: Its IC50 is 531 nM.

Question: What about the IC50 ([17]; read-out: IC50, IL-7, pSTAT5) of the same molecule?
Answer: Its IC50 is 3620 nM.

Question: What about the IC50 ([17]; read-out: IC50,u, IL-7, pSTAT5) of the same molecule?
Answer: Its IC50 is 1460 nM.

Question: And the fraction unbound at 6 h, 1 μmol/L [18]?
Answer: The fraction unbound at 6 h, 1 μmol/L was 0.49.

Question: And the “LogIC50, IL-15 induced pSTAT5, single experiment” value [19]?
Answer: Its value is -5.526 log[M].

Question: What about the IC50 ([19]; read-out: IC50, IL-15, pSTAT5) of the same molecule?
Answer: Its IC50 is 3380 nM.

Question: And the IC50 ([19]; read-out: IC50, IL-15 induced pSTAT5, single experiment)?
Answer: Its IC50 is 2980 nM.

Question: What about the IC50 ([19]; read-out: IC50,u, IL-15, pSTAT5) of the same molecule?
Answer: The IC50 was 1360 nM.

Question: And the IC50 ([20]; Homo sapiens, Lymphocyte, read-out: IC50, IL-3, pSTAT5)?
Answer: Its IC50 is greater than 20000 nM.

Question: And the “IC50, IL-3, pSTAT5” value ([20]; human whole blood, four donors, mean (SD), lymphocytes, JAK2/JAK2, IL-3 50 ng/mL)?
Answer: Its value is “not measurable”.

Question: And the IC50 ([21]; Figure S1F, Donor 573, Exp 1, one of four experiments, read-out: IC50, EPO induced pSTAT5, single experiment)?
Answer: Its IC50 is 7580 nM.

Question: What about the IC50 ([21]; four donors, mean (SD), erythroid progenitor cells, JAK2/JAK2, EPO 10 U/mL, read-out: IC50, EPO, pSTAT5) of the same molecule?
Answer: The IC50 was 9900 nM.

Question: And the IC50 ([21]; unbound (IC50/blood:plasma ratio × fu), erythroid progenitor cells, JAK2/JAK2, read-out: IC50,u, EPO, pSTAT5)?
Answer: Its IC50 is 3970 nM.

Question: And the “LogIC50, EPO induced pSTAT5, single experiment” value ([21]; Figure S1F, Donor 573, Exp 1)?
Answer: The value was -5.121 log[M].

Question: And the “LogIC50, IL-12 induced pSTAT4, single experiment” value [22]?
Answer: Its value is -5.125 log[M].

Question: What about the IC50 ([22]; read-out: IC50, IL-12, pSTAT4) of the same molecule?
Answer: The IC50 was 8030 nM.

Question: What about the IC50 ([22]; read-out: IC50, IL-12 induced pSTAT4, single experiment) of the same molecule?
Answer: Its IC50 is 7510 nM.

Question: And the IC50 ([22]; read-out: IC50,u, IL-12, pSTAT4)?
Answer: Its IC50 is 3220 nM.

Question: And the IC50 ([23]; read-out: IC50, IL-2, pSTAT5)?
Answer: The IC50 was 2660 nM.

Question: And the IC50 ([23]; read-out: IC50,u, IL-2, pSTAT5)?
Answer: The IC50 was 1070 nM.

Question: What about the IC50 ([24]; read-out: IC50, IFNα, pSTAT3) of the same molecule?
Answer: Its IC50 is 1060 nM.

Question: And the IC50 ([24]; read-out: IC50,u, IFNα, pSTAT3)?
Answer: The IC50 was 425 nM.

Question: And the Cav [25]?
Answer: The Cav was 474 nM.

Question: And the IC50 ([26]; Homo sapiens, read-out: IC50, GM-CSF, pSTAT5)?
Answer: Its IC50 is greater than 20000 nM.

Question: And the “IC50, GM-CSF, pSTAT5” value ([26]; human whole blood, four donors, mean (SD), CD14+ cells, JAK2/JAK2, GM-CSF 10 ng/mL)?
Answer: The value was “not measurable”.
